From patent US5328922A, “Indole ureas as 5 ht receptor antagonist” (priority 1990, dated 1994)
Structures can show the parent of a compound that is named as a salt. Where two headings read alike, the source gives them in different places.

Assays:
[1] = biological target: T1, 5-HT1C binding site (Sus scrofa, UniProt K7GSR7); assay: [^3 H]-mesulergine binding to pig choroid plexus membranes in vitro
T1 construct: Pooled pig choroid plexi were homogenised; from tissue; host or cells: pig choroid plexus membranes
T1 sequence (K7GSR7 1-457): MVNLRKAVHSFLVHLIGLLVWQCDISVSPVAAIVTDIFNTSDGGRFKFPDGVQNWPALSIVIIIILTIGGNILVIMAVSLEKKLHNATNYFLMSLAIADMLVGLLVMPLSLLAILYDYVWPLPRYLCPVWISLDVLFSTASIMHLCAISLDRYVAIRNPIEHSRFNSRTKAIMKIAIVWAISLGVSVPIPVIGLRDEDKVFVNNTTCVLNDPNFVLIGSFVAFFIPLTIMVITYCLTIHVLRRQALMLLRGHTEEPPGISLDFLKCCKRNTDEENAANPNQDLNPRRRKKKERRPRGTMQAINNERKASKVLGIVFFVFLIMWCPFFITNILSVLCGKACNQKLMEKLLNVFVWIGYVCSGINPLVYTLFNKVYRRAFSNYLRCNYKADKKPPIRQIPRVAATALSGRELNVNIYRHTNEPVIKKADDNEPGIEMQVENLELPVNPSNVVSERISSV
Source text: [^3 H]-mesulergine binding to pig choroid plexus membranes in vitro
(Curzon and Kennett, 1990; Fozard and Gray, 1989) and Alzheimer's Disease (Lawlor, 1989, J. Arch. Gen. Psychiat. Vol. 46 p.542).
The affinity of test drugs for the 5-HT1C binding site can be determined by assessing their ability to displace [^3 H]-mesulergine from 5-HT1C binding sites in pig choroid plexus membranes. The method employed was similar to that of Pazos et al, 1984.
Pooled pig choroid plexi were homogenised in 20 vols of Tris HCl buffer (pH7.4) (containing 4 mM CaCl2 and 0.01% ascorbic acid) and centrifuged at 50,000 g for 15 rain at 4° C. The supernatant was removed and re-centrifuged. This was repeated a further two times with the incubation of the homogenate (37° C. for 15 min) before the final centrifugation. The final pellet was resuspended in 20 vols of buffer and stored at -70° C. until use.
The tissue suspension (50 μl) was incubated with [^3 H]-mesulergine (2 nM) in Tris HCl buffer (pH7.4) at 37° C. (containing 0.01% ascorbic acid, 4 mM CaCl2) and 3×10^-8 M spiperone for 30 minutes. Non-specific binding was measured in the presence of mianserin (10^-6 M). Six concentrations of test drug (10^-9 to 10^-4 M final concentration) were added in a volume of 50 μl. The total assay volume was 500 μl. Incubation was stopped by rapid filtration using a Skatron cell harvester and radioactivity measured by liquid scintillation spectrometry. The IC50 values were determined and the pKi (the negative logarithm of the inhibition constant) calculated from the Cheng Prusoff equation where [formula] wherein: Ki =inhibition constant.
C=concentration of [^3 H]-mesulergine
Kd=Affinity of mesulergine for 5-HT1C binding sites.
Curzon, G. A. and Kennett, G. A. (1990). TIPS, Vol. 11, 181-182. Fozard, J. R. and Gray, J. A. (1989). TIPS, Vol. 10, 307-309. Pazos, A. et al. (1984). Eur. J. Pharmacol., 106, 531-538.

[2] = biological target: T2, 5-HT receptor that has the characteristics of a 5-HT1C receptor (Rattus norvegicus, UniProt P30994); assay: Rat stomach fundus: 5-HT1C antagonist action (inhibition of 5-HT-induced contractions); settings: rat stomach strips; test drug 10^-6 M for 30 mins; 5-HT dose-response; read-out: apparent dissociation constant, KB
T2 construct: from tissue; host or cells: rat stomach fundus strips
T2 sequence (P30994 whole entry): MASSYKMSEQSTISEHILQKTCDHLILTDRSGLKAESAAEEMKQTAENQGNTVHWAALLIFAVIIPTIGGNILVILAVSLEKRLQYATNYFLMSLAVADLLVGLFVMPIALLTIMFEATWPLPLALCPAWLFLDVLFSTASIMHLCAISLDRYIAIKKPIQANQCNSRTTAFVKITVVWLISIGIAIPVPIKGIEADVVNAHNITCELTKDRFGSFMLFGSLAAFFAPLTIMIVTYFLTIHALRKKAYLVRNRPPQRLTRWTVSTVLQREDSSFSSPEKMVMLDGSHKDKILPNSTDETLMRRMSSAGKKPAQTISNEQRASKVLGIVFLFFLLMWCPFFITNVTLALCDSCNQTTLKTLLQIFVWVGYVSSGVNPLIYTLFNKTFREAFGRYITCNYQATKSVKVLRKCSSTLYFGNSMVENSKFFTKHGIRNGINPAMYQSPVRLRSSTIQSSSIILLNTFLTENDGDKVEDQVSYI
Procedure: 5-Hydroxytryptamine (5-HT) induces contractions of the rat stomach fundus through a 5-HT receptor that has the characteristics of a 5-HT1C receptor (Blackburn et al, 1990).
Rat stomach strips (6×4 mm) were suspended under a 4 g tension in 5 ml baths containing Tyrode solution, gassed with a mixture of 95% O2 /5% CO2. After a 1 hour equilibration period, two dose response curves were constructed to 5-HT (final concentrations, 10^-9 to 3×10^-6 M). Test drugs were then incubated at a final concentration of 10^-6 M for 30 mins and another dose-response curve constructed to 5-HT. The apparent dissociation constant of a test drug, KB, can be calculated from the equation where [formula] where B=concentration of the test drug and DR=the dose ratio (the factor by which the concentration of the agonist has to be increased in the presence of the test drug to obtain an identical effect observed in the absence of the test drug).

[3] = test system: rat stomach fundus serotonin receptor; settings: P. Fludzinski et. al., J. Med. Chem. 1986 29 2415-2418; cited from earlier work
[4] = Social Interaction Test (potential anxiolytic properties); type: in vivo, rat; settings: male rats; p.o. 1 h pretest; doses of 2-40 mg/kg
Source text: Potential anxiolytic properties have been evaluated using the social interaction test based on that described by File (1980 J. Neurosci. Meth., 2, 219). Active social interaction between male rats is usually quantitated by counting interactive behaviours such as following, grooming, sniffing, climbing over or under, biting, mounting and boxing. This behaviour is supressed when the rats encounter each other in an environment which is novel and brightly lit. Under these circumstances anxiolytic drugs will enhance the level of social interaction.
Rats were housed in groups of 8 in a holding room adjacent to the experimental chamber for 8 days. They were then housed singly in the same room for 3 days prior to the experimental day. On the experimental day rats were injected p.o. 1 h pretest with vehicle or drug in pairs at 15 min intervals beginning at 10.00 am. 60 Mins later they were placed with a weight matched pair mate (encountered for the first time) in the social interaction box in a separate room. The box was made of while perspex 54×37×26 cm with no lid. The floor was divided into 24 equal squares and the cage was brightly lit. Active social interaction was scored blind over the next 15 min by remote video monitoring to give total interaction scores. The number of squares crossed by each rat was also scored and summed. […]

[5] = Geller-Seifter Procedure (potential anxiolytic properties); type: in vivo, rat; settings: rats; 30 min before testing; dose levels in the range 5-40 mg/kg p.o.
Procedure: Potential anxiolytic properties are evaluated using the Geller-Seifter procedure based on that originally described by Geller and Seifter, (1960) Psychopharmacologia, 1, 482-492.
Rats are trained on a variable interval 30 sec schedule (VI30) to press a lever in order to obtain food reward. The 5 min sessions of the VI30 schedule alternate with 2-5 min of a schedule (FR5) in which every 5th lever press is followed by presentation of a food pellet paired with a 0.5 sec mild footshock. The total study lasts approximately 30 mins. Rats typically respond with high rates of lever pressing under the VI30 schedule and low response rates under the FR5 `conflict` session. Anxiolytic drugs increase the suppressed response rates of rats in a `conflict` session.
Drugs are administered intraperitoneally or orally to groups of 3-8 rats 30 min before testing.
The results are expressed as the percentage increase in the square root of the total number of lever presses in the FR5 `conflict` session. Square root transformation is necessary to normalise the data for statistical analysis using parametric methods.

| SMILES | Ki [1] [nM] | Kb [2] [nM] | selectivity for the rat stomach fundus serotonin receptor [3] | Ki ([1]; [^3 H]-mesulergine 2 nM, pig choroid plexus membranes, 3×10^-8 M spiperone, pH7.4, 37° C., 30 minutes, pKi from IC50 by Cheng Prusoff equation, read-out: [^3 ]-Mesulergine pKi (converted)) [nM] | social interaction [4] | responding in the `conflict` session (percentage increase in square root of total lever presses in FR5) [5] |
| --- | --- | --- | --- | --- | --- | --- |
| Cn1ccc2ccc(NC(=O)Nc3cccnc3)cc21 [E6, N-(1-Methyl-1H-indol-6-yl)-N'-(3-pyridyl)urea hydrochloride] | 316 | 170 |  |  |  |  |
| CCc1c(C)n(C)c2ccc(NC(=O)Nc3cccnc3)cc12 [E1, N-(1,2-Dimethyl-3-ethyl-1H-indol-5-yl)-N'-(3-pyridyl)urea hydrochloride] | 25.1 | 32 |  |  |  |  |
| CCc1c(C)n(C)c2ccc(NC(=O)Nc3cccc(C(F)(F)F)c3)cc12 [N-(1,2-dimethyl-3-ethyl-1H-indol-5-yl)-N'-(3-trifluoromethylphenyl)urea] |  |  | shows selectivity for the rat stomach fundus serotonin receptor |  |  |  |
| CCCn1ccc2cc(NC(=O)Nc3cccnc3)ccc21 [E4, N-(1-Propyl-1H-indol-5-yl)-N'-(3-pyridyl)urea oxalate] | 200 | 400 |  |  |  |  |
| Cl.Cn1ccc2cc(NC(=O)Nc3cccnc3)ccc21 [E2, N-(1-Methyl-1H-indol-5-yl)-N'-(3-pyridyl)urea hydrochloride] |  | 100 |  | 158 | significant increase in social interaction | significant increase in responding in the `conflict` session |
| Cn1ccc2c(NC(=O)Nc3cccnc3)cccc21 [E5, N-(1-Methyl-1H-indol-4-yl)-N'-(3-pyridyl)urea hydrochloride] | 200 | 250 |  |  |  |  |
| Cc1c(C)n(C)c2ccc(NC(=O)Nc3cccnc3)cc12 [E3, N-(1,2,3-Trimethyl-1H-indol-5-yl)-N'-(3-pyridyl)urea hydrochloride] | 200 | 25 |  |  |  |  |
